Source: patent US20050003022A1 (priority 2002, published 2005)

How the values were obtained:
influenza virus = tested on: influenza virus; set-up: species or system small mice; settings: in vivo
[1] = in vivo; cited from earlier work
influenza = settings: in vivo; cited from earlier work

| Structure (SMILES) | small mouse protection ratio (ED50) (influenza virus) [mg/kg] | utilization ratio of oral taken drug [1] [%] | median day for alleviating influenza symptoms (influenza) [days] | reduction from average influenza case (influenza) [days] |
| --- | --- | --- | --- | --- |
| NC(=O)c1ncn([C@@H]2O[C@H](CO)[C@@H](O)[C@H]2O)n1 [Ribavirin] | 25 |  |  |  |
| CC(=O)N[C@H]1[C@H]([C@H](O)[C@H](O)CO)OC(C(=O)O)=C[C@@H]1N=C(N)N [Zanamivir] |  | 2 | 6.5 | 1.3 |
